In patent US12171744B2, “Pharmaceutical combinations for the treatment of cancer” (Presage Biosciences, Inc., priority 2016, dated 2024):
Entries after “also recorded” stand apart in the source; their conditions may differ.

What was measured:
[1] = system: NU-DHL-1 diffuse large B-cell lymphoma (DLBCL) cells; assay: CIVO microinjection, staining for MCL-1 and cleaved caspase-3; type: in vivo, mice
Method: Mice were enrolled into CIVO drug studies when the tumor volume reached approximately 1000 mm^3. […] A fluorescent tracking marker (FTM) was added to each drug reservoir in vehicle for delivery along with each drug or drug combination. […] Total amounts of agents injected are tabulated below in Table 4.
The cells were stained for cleaved caspase-3 (CC3) (shown in red) as a marker of apoptosis.

NUDHL/Dox1000 cells = assay: CIVO microinjection, CC3 expression; parameters: species or system mice; conditions: mouse, in vivo
Method: (§1) Cell lines shown in Table 1, adherent or suspension, were treated in 6-well dishes or T10 flasks respectively, seeded at one million per ml density prior to treatment in total volumes of 3-10 ml. All agents used for in vitro cell treatments were formulated in water/DMSO to achieve required concentrations (as stated in respective figure labels/legends) with DMSO concentrations not exceeding 0.01%. Drug sources are indicated in table under ‘CIVO microinjection studies’. Cells were harvested at experimental time points: 2, 6, or 24 hours post treatment as indicated in respective figures, first by washing cells twice in ice-cold PBS in 15 ml falcon tubes, centrifugation at 1000 rpm for 5 mins followed by lysis of the respective cell pellets as described in section below. Note: Drug resistant NUDHL1 Dox 1000 nM and Toledo Dox 1000 nM cell lines were generated at Presage by culturing parental lines in media with stepwise increments in Doxorubicin concentration over several passages. These cells were used to generate xenografts when resistance to 1 uM Dox was achieved.
(§2) Mice were enrolled into CIVO drug studies when the tumor volume reached approximately 1000 mm^3. […]

Toledo/Dox1000 cells = assay: CIVO microinjection, CC3 expression; parameters: species or system mice; conditions: mouse, in vivo
Method: as §1, §2

[2] = system: Ramos Burkitt's lymphoma cells; assay: CIVO microinjection, cleaved caspase-3 staining; type: in vivo, mice; conditions: marker of apoptosis
Method: Mice were enrolled into CIVO drug studies when the tumor volume reached approximately 1000 mm^3. Microinjection studies were performed using the CIVO device as previously described (Klinghoffer et al, Science Translational Medicine 2015) The device was configured with 6 injection needles set for a 6 mm injection length and a total volume delivery of 3 μl. A fluorescent tracking marker (FTM) was added to each drug reservoir in vehicle for delivery along with each drug or drug combination. All micro-doses were equivalent to or lower than what would be allowed under FDA guidelines for Exploratory IND (Investigational New Drug) studies and by solubility of drug into vehicle. Total amounts of agents injected are tabulated below in Table 4.
FIGS. 5A-5D show Ramos Burkitt's lymphoma cells stained for cleaved caspase-3 (CC3) (shown in red) as a marker of apoptosis.

U2932 model of DLBCL = assay: Western blot of treated cells; type: cell-based; conditions: increasing concentration of voruciclib, single agent
Method: as §1, with “These cells were used to generate xenografts when resistance to 1 uM Dox was achieved.” left out
Protein lysates were prepared by adding ice-cold 1×RIPA Buffer (from 10×, Millipore) with 1×-3× Halt protease and phosphatase inhibitor cocktail (100×, Pierce) to cell pellets, followed by pulse sonication (˜3-5 secs) three times. […] Protein samples were quantified using Bradford assay (Biorad) at 1:10 or higher dilutions using appropriate blank controls with 1×RIPA. […]

[3] = system: RIVA (activated B-cell, or ABC) model of DLBCL; assay: Xenograft tumor growth; type: in vivo, NOD SCID mice; conditions: Voruciclib 200 mpk, Venetoclax 1 mpk
Method: Immune deficient NOD SCID mice were implanted with the RIVA (activated B-cell, or ABC) model of DLBCL. The xenografted tumors were allowed to grow in the NOD SCID host until they reached 200 mm^3, at which point the xenografted animals were randomized into 4 study groups: 1. Vehicle control; 2. […] Venetoclax at 1 mpk; and 4. […] Venetoclax was dosed by oral gavage on days 1 and 4 of each weekly cycle. Drug effects were assessed via tumor volume measurements twice weekly by a technician blinded to the treatment of each subject in the study. N=5-6 animals per treatment arm.

SUDHL4 model of DLBCL = assay: Xenograft tumor growth and Western blot of tumors; type: in vivo, NOD SCID mice
Method: Protein lysates were prepared by adding ice-cold 1×RIPA Buffer (from 10×, Millipore) with 1×-3× Halt protease and phosphatase inhibitor cocktail (100×, Pierce) to cell pellets, followed by pulse sonication (˜3-5 secs) three times. Lysates were cleared by centrifugation at 14K rpm for 15-20 mins and the supernatant (lysate) was collected for further analysis. To prepare lysates from cryopreserved xenograft tumor tissue, tissue was first homogenized using a hand-held tissue homogenizer (Cole Palmer) in above lysis buffer followed by pulse sonication and centrifugation as described above. Above steps were carried out under ice cold conditions. Protein samples were quantified using Bradford assay (Biorad) at 1:10 or higher dilutions using appropriate blank controls with 1×RIPA. […]
Immune deficient NOD SCID mice were implanted with the SUDHL4 model of DLBCL. […] Drug effects were assessed via tumor volume measurements twice weekly by a technician blinded to the treatment of each subject in the study. […]

SKM1 AML xenografts = assay: Xenograft tumor growth; type: in vivo, NOD SCID; conditions: Voruciclib 200 mpk PO, ABT 199 10 mpk PO, 6 on/1 off; by day 22
Method: Mice were enrolled for study when tumors reached an average volume of 150-200 mm^3. Tumor volume was calculated as V=length×width×height, all three dimensions measured using digital calipers along with body weight. Animals were removed from the study when—any one of the three measured dimensions of the tumor exceeding 2 cm, volume exceeding 2500 mm^3, ulceration or body weight loss greater than 20%.

MAK = MAK (Homo sapiens, UniProt P20794); assay: Kinase inhibition profile
Chain of MAK (P20794 whole entry): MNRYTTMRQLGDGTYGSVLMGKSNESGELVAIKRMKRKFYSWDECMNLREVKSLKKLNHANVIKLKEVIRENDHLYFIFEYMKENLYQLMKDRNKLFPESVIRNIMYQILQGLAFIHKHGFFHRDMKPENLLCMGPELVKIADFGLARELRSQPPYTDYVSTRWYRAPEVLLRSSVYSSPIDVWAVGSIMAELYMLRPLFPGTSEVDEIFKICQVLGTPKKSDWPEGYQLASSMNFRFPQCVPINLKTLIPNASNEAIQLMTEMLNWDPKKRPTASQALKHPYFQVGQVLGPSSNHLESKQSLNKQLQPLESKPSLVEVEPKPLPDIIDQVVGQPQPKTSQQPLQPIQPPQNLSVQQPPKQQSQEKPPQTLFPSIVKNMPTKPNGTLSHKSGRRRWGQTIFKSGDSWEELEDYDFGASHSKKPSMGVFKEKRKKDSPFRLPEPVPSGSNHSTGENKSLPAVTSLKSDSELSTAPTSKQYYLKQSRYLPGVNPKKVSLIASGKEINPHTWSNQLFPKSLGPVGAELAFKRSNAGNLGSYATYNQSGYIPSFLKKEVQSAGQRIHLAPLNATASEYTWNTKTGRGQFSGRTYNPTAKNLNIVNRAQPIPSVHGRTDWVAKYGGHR

## CN1CC[C@@H](c2c(O)cc(O)c3c(=O)cc(-c4ccc(C(F)(F)F)cc4Cl)oc23)[C@@H]1CO (relative stereo) [voruciclib, (+)-trans-2-(2-Chloro-4-trifluoromethylphenyl)-5,7-dihydroxy-8-(2-hydroxymethyl-1-methylpyrrolidin-3-yl)-chromen-4-one]
[1]; marker of apoptosis
  expression of CC3 (cleaved caspase-3): slight increased; also recorded: slight effect
[1]; staining, versus vehicle
  expression of MCL-1: decreased
NUDHL/Dox1000 cells
  CC3 expression: slight effect
Toledo/Dox1000 cells
  CC3 expression: slight effect
[2]
  expression of CC3: slight increase
U2932 model of DLBCL
  MCL-1: suppresses
  apoptosis (cPARP): increases as the concentration of voruciclib increases
[3]
  tumor size (images): smaller
[3]; oral gavage
  average tumor volume: decrease in tumor volume
SUDHL4 model of DLBCL; Voruciclib 200 mpk, Venetoclax 25 mpk, oral gavage 6 days of the week
  normalized tumor volume: increase in tumor volume
SUDHL4 model of DLBCL; Western blot of tumors, Day 26, 4 hours post treatment
  p53: restores
SKM1 AML xenografts
  normalized tumor volume: slightly lower
MAK
  inhibition of MAK: does not show potent inhibition
